According to patent US7345091B2, “Carotenoid ether analogs or derivatives for the inhibition and amelioration of disease” (Cardax Pharmaceuticals, Inc., priority 2002, dated 2008):
Entries after “also recorded” stand apart in the source; their conditions may differ. Structures can show the parent of a compound that is named as a salt.

Experiments:
C3H/10T1/2 cells = experiment: Assembly of Cx43 into plaques (immunofluorescent staining); assay type: cell-based, mouse; details: 1×10^-5 M in 1:2 EtOH/H2O, 4 days
Experimental: In this experiment expression and assembly of Cx43 into plaques was assessed by immunofluorescent staining. Procedures were essentially as described in Zhang (1992). Briefly, confluent cultures of C3H/10T1/2 cells were grown on Permanox plastic 4-chamber slides (Nalge Nunc International, Naperville, Ill.) and treated for 4 days with: (1) the disodium salt disuccinate astaxanthin derivative XVI (statistical mixture of stereoisomers) dissolved in a 1:2 EtOH/H2O formulation; (2) the retinoid TTNPB at 1×10^−8 M in tetrahydrofuran as a positive control; or (3) 1:2 EtOH/H2O as a solvent control. Cells were fixed with −20° C. methanol overnight, washed in buffer, blocked in 1% bovine serum albumin (Sigma, St, Louis, Mo.) in PBS, and incubated with the rabbit polyclonal anti-Cx43 antibody (Zymed, San Francisco, Calif.) as in (2) above and detected with Alexa568 conjugated anti-rabbit secondary (Molecular Probes, Eugene, Oreg.). Slides were illuminated with […] light and images were acquired at a wavelength of 600 nm using the Zeiss Axioscope light microscope and a Roper Scientific cooled CCD camera. […] In cultures treated with solvent as control, such immunoreactive plaques were infrequent and were smaller than those detected in cells treated with the statistical mixture of stereoisomers of the disodium salt disuccinate astaxanthin derivative XVI or with TTNPB as positive control. […]

male Sprague-Dawley rats = experiment: Infarct size reduction after coronary artery occlusion/reperfusion; assay type: in vivo, rat; details: for relationship of infarct size reduction / myocardial salvage to dose: 25, 50, 75 mg/kg I.V.
Experimental: FIG. 4, FIG. 25, and FIG. 26 depict graphical representations of the reduction of infarct size in male Sprague-Dawley rats. Male Sprague-Dawley rats were pre-treated with the disodium salt disuccinate astaxanthin derivative XVI (as the mixture of stereoisomers) in aqueous solution before performing an occlusion and inducing a myocardial infarction. Male Sprague-Dawley rats (175-200 grams) were anaesthetized with 100 mg/kg of Inactin, instrumented, and the heart exposed. […] The hearts were washed in buffer and incubated in triphenyltetrazolium chloride (TTC) staining solution kept at 37° C. in phosphate buffer at pH of 7.40. Infarct size (IS) was expressed as a % of the area at risk (IS/AAR, %). Systemic blood pressure, heart rate, blood gases and body temperature were monitored throughout the experiment, and temperature and blood gases were tightly controlled at normal physiological levels. 25, 50, or 75 mg/kg of the disodium salt disuccinate astaxanthin derivative XVI or sterile saline vehicle was administered I.V. by tail vein injection every day for 4 days prior to the infarct experiment on day 5 and subsequent infarct size determination.

[1] = test system: male New Zealand white rabbits; experiment: Experimental infarct size after parenteral administration; assay type: in vivo, rabbit
From the text: The influence of parenteral administration of the disodium disuccinate astaxanthin derivative (XVI) on induced infarct size and induced levels of circulating C-reactive protein (CRP) in rabbits was investigated using the methods of Barrett et al. (2002) with slight modifications. The purpose of the current study was to investigate the ability of the disodium disuccinate astaxanthin derivative (XVI) to reduce inflammation as measured by CRP in the setting of experimental myocardial ischemia-reperfusion injury in the rabbit heart. […] Therefore, reduction of circulating CRP levels, together with the reduction(s) in infarct size previously noted with Cardax™ in rodents, would form a powerful anti-inflammatory therapeutic modality in the acute coronary syndrome setting.
In brief, male New Zealand white rabbits (2.25-2.5 kg) were used for the study. The acute phase inflammatory response was induced by subcutaneous injection of four aliquots (0.5 mL each) of 1% croton oil in corn oil beginning on the second day of pre-treatment with Cardax™. […]
At the completion of the reperfusion phase of the protocol, the hearts were removed and cannulated by the aorta on the Langendorff perfusion apparatus. […] Total area at risk was expressed as a percentage of the left ventricle. Infarct size was then expressed as a percentage of area at risk.

CC1=C(/C=C/C(C)=C/C=C/C(C)=C/C=C/C=C(C)/C=C/C=C(C)/C=C/C2=C(C)C(=O)C(OC(=O)CCC(=O)O)CC2(C)C)C(C)(C)CC(OC(=O)CCC(=O)O)C1=O (racemic) [XVI, Disodium Salt of the Disuccinic Acid Ester of Astaxanthin]
assembly of immunoreactive Cx43 into plaques (C3H/10T1/2 cells): increases assembly of Cx43; also recorded: exhibited assembly of immunoreactive Cx43 into plaques
mean myocardial salvage (male Sprague-Dawley rats; 75 mg/kg I.V. daily for 4 days before 30 min occlusion / 2 hours reperfusion): 56%
relationship of infarct size reduction / myocardial salvage to dose (male Sprague-Dawley rats): increased linearly, and significantly, with dose
relationship of infarct size reduction / myocardial salvage to dose (male Sprague-Dawley rats; listed as Cardax™): linear relationship between dose and infarct size reduction
reductions in infarct size ([1]; 50 mg/kg IV once per day for 4 days, 30 min occlusion / 180 min reperfusion): approximately 55.4%
increase in infarct size reduction in rabbit vs rodents ([1]; same dose and identical pre-treatment schedule): 38%
